Measured values: patent publication USRE47689E1, “Compounds for treating spinal muscular atrophy” (PTC Therapeutics, Inc., priority 2011, dated 2019)

Key:
[1] = tested on: SMN2 minigene (full length SMN2 minigene mRNA containing SMN2 exon 7); assay: SMN2 minigene mRNA splicing RT-qPCR assay in cultured cells; format: cell-based, human; conditions: Homo sapiens, HEK293-H; HEK293H cells stably transfected with SMN2-A minigene; 24 hours; 7-point concentration curve; 1.5-fold relative to vehicle-treated cells; read-out: EC1.5x for production of full length SMN2 mRNA
Summary of the method: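 Lysates → one-step RT-qPCR, minigene-specific primers (0.4 μM final) + GAPDH multiplex, 40 cycles. FL/GAPDH vs DMSO; EC1.5x, star-binned.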

Smn protein = Smn protein assay in cultured cells (SMN HTRF); format: cell-based, human; conditions: 48 hours; for EC1.5x (concentration giving 1.5-fold Smn protein increase): SMA Type 1 patient fibroblast cells (GM03813), 7-point concentration curve, SMN HTRF, concentration producing 1.5 times Smn protein vs DMSO vehicle control, read-out: EC1.5x for Smn protein expression; for maximum fold (Fold) increase of Smn protein: SMA patient fibroblast cells, 7-point concentration data, fold increase relative to vehicle control (SMN HTRF)
Summary of the method: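 Smn in SMA fibroblast lysates, measured by anti-SMN HTRF after 48 h compound exposure; EC1.5x from fold change over vehicle.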

Structure (SMILES) | EC (1.5-fold) [1] [µM] | melting point [°C] | EC1.5x (concentration giving 1.5-fold Smn protein increase) (Smn protein) [nM] | maximum fold (Fold) increase of Smn protein (Smn protein)
Cc1cn2cc(-c3cc4ccc(N[C@H]5CCN(C)C5)cc4oc3=O)nc2c(C)n1 [Compound 657, 3-(6,8-dimethylimidazo[1,2-a]pyrazin-2-yl)-7-{[(3S)-1-methylpyrrolidin-3-yl]amino}-2H-chromen-2-one] | < 0.1 | 223 to 233 | < 300 | **** (fold increase between >1.5 and ≤1.65)
Cc1cn2cc(-c3cc4ccc(N5C[C@H]6CCCN(C)[C@H]6C5)cc4oc3=O)nc2c(C)n1 [Compound 658, 3-(6,8-dimethylimidazo[1,2-a]pyrazin-2-yl)-7-[(4aR,7aR)-1-methyloctahydro-6H-pyrrolo[3,4-b]pyridin-6-yl]-2H-chromen-2-one] | < 0.1 | 232 | < 300 | ***** (fold increase >1.65)
Cc1cn2cc(-c3cc4ccc(N5CCN(C)[C@H](C)C5)cc4oc3=O)cnc2n1 [Compound 660, 7-[(3R)-3,4-dimethylpiperazin-1-yl]-3-(2-methylimidazo[1,2-a]pyrimidin-6-yl)-2H-chromen-2-one] | < 0.1 | 280 to 282 | 300 to 1000 | ***** (fold increase >1.65)
Cc1cn2cc(-c3cc4ccc(N5CCN(C)[C@H](C)C5)cc4oc3=O)ccc2n1 [Compound 661, 7-[(3R)-3,4-dimethylpiperazin-1-yl]-3-(2-methylimidazo[1,2-a]pyridin-6-yl)-2H-chromen-2-one] | < 0.1 | 206 to 209 | < 300 | ***** (fold increase >1.65)
Cc1cn2cc(-c3cc4ccc(N5CCCN(C)CC5)cc4oc3=O)cnc2n1 [Compound 662, 7-(4-methyl-1,4-diazepan-1-yl)-3-(2-methylimidazo[1,2-a]pyrimidin-6-yl)-2H-chromen-2-one] | < 0.1 | 286 to 289 | 1000 to 3000 | *** (fold increase between >1.35 and ≤1.5)
Cc1cn2cc(-c3cc4ccc(N5CCCNCC5)cc4oc3=O)ccc2n1 [Compound 663, 7-(1,4-diazepan-1-yl)-3-(2-methylimidazo[1,2-a]pyridin-6-yl)-2H-chromen-2-one] | < 0.1 | 222 to 225 |  | *** (fold increase between >1.35 and ≤1.5)
CCC1CN(c2ccc3cc(-c4cn5cc(C)nc(C)c5n4)c(=O)oc3c2)CCN1 (stereo not drawn) [Compound 665, 3-(6,8-dimethylimidazo[1,2-a]pyrazin-2-yl)-7-(3-ethylpiperazin-1-yl)-2H-chromen-2-one] | < 0.1 | 211 to 215 | < 300 | ***** (fold increase >1.65)
Cc1cn2cc(-c3cc4ccc(N5CC[C@H](N(C)C)C5)cc4oc3=O)cc2cn1 [Compound 666, 7-[(3S)-3-(dimethylamino)pyrrolidin-1-yl]-3-(3-methylpyrrolo[1,2-a]pyrazin-7-yl)-2H-chromen-2-one] | < 0.1 | 200 to 204 | < 300 | **** (fold increase between >1.5 and ≤1.65)
CCN1CCCN(c2ccc3cc(-c4cc5cnc(C)cn5c4)c(=O)oc3c2)CC1 [Compound 667, 7-(4-ethyl-1,4-diazepan-1-yl)-3-(3-methylpyrrolo[1,2-a]pyrazin-7-yl)-2H-chromen-2-one] | < 0.1 | 130 to 133 | < 300 | **** (fold increase between >1.5 and ≤1.65)
Cc1cn2cc(-c3cc4ccc(N5CCN[C@H](C)C5)cc4oc3=O)cc2c(C)n1 [Compound 668, 3-(1,3-dimethylpyrrolo[1,2-a]pyrazin-7-yl)-7-[(3R)-3-methylpiperazin-1-yl]-2H-chromen-2-one] | < 0.1 | 205 to 209 | < 300 | ***** (fold increase >1.65)
Cc1cn2cc(-c3cc4ccc(N5CCN6CCC[C@@H]6C5)cc4oc3=O)cc2c(C)n1 [Compound 669, 3-(1,3-dimethylpyrrolo[1,2-a]pyrazin-7-yl)-7-[(8aR)-hexahydropyrrolo[1,2-a]pyrazin-2(1H)-yl]-2H-chromen-2-one] | < 0.1 | 170 to 173 | < 300 | ***** (fold increase >1.65)
Cc1cn2cc(-c3cc4ccc(N5CCNCC5)cc4oc3=O)cc2c(C)n1 [Compound 670, 3-(1,3-dimethylpyrrolo[1,2-a]pyrazin-7-yl)-7-(piperazin-1-yl)-2H-chromen-2-one] | < 0.1 | 186 to 189 | < 300 | ***** (fold increase >1.65)
CCN1CCCN(c2ccc3cc(-c4cc5c(C)nc(C)cn5c4)c(=O)oc3c2)CC1 [Compound 671, 3-(1,3-dimethylpyrrolo[1,2-a]pyrazin-7-yl)-7-(4-ethyl-1,4-diazepan-1-yl)-2H-chromen-2-one] | < 0.1 | 166 to 169 | < 300 | ***** (fold increase >1.65)
Cc1cn2cc(-c3cc4ccc(N5CCN(C)[C@@H](C)C5)cc4oc3=O)nc2c(C)n1 [Compound 672, 3-(6,8-dimethylimidazo[1,2-a]pyrazin-2-yl)-7-[(3S)-3,4-dimethylpiperazin-1-yl]-2H-chromen-2-one] | < 0.1 | 211 to 215 | < 300 | **** (fold increase between >1.5 and ≤1.65)
Cc1cn2cc(-c3cc4ccc(N5CCN6CCC[C@H]6C5)cc4oc3=O)cc2c(C)n1 [Compound 673, 3-(1,3-dimethylpyrrolo[1,2-a]pyrazin-7-yl)-7-[(8aS)-hexahydropyrrolo[1,2-a]pyrazin-2(1H)-yl]-2H-chromen-2-one] | < 0.1 | 169 to 173 | < 300 | ***** (fold increase >1.65)
CCN1CCN(c2ccc3cc(-c4cc5c(C)nc(C)cn5c4)c(=O)oc3c2)CC1 [Compound 674, 3-(1,3-dimethylpyrrolo[1,2-a]pyrazin-7-yl)-7-(4-ethylpiperazin-1-yl)-2H-chromen-2-one] | < 0.1 | 182 to 185 | < 300 | ***** (fold increase >1.65)
Cc1cn2cc(-c3cc4ccc(N5CCN(C)[C@@H](C)C5)cc4oc3=O)ccc2n1 [Compound 675, 7-[(3S)-3,4-dimethylpiperazin-1-yl]-3-(2-methylimidazo[1,2-a]pyridin-6-yl)-2H-chromen-2-one] | < 0.1 | 205 to 207 | 1000 to 3000 | **** (fold increase between >1.5 and ≤1.65)
CCC1CN(c2ccc3cc(-c4cn5cc(C)nc(C)c5n4)c(=O)oc3c2)CCN1C (stereo not drawn) [Compound 676, 3-(6,8-dimethylimidazo[1,2-a]pyrazin-2-yl)-7-(3-ethyl-4-methylpiperazin-1-yl)-2H-chromen-2-one] | < 0.1 | 258 to 262 | < 300 | ***** (fold increase >1.65)
Cc1cn2cc(-c3cc4ccc(N5CCN(C)CC5)cc4oc3=O)ccc2n1 [Compound 678, 3-(2-methylimidazo[1,2-a]pyridin-6-yl)-7-(4-methylpiperazin-1-yl)-2H-chromen-2-one] | < 0.1 | 235 to 238 | < 300 | ***** (fold increase >1.65)
Cc1cn2cc(-c3cc4ccc(N5CCN[C@@H](C)C5)cc4oc3=O)cc2c(C)n1 [Compound 680, 3-(1,3-dimethylpyrrolo[1,2-a]pyrazin-7-yl)-7-[(3S)-3-methylpiperazin-1-yl]-2H-chromen-2-one] | < 0.1 | 162 to 165 | < 300 | **** (fold increase between >1.5 and ≤1.65)
Cc1cn2cc(-c3cc4ccc(N5CCCNCC5)cc4oc3=O)cc2c(C)n1 [Compound 682, 7-(1,4-diazepan-1-yl)-3-(1,3-dimethylpyrrolo[1,2-a]pyrazin-7-yl)-2H-chromen-2-one] | < 0.1 | 187 to 190 | 1000 to 3000 | *** (fold increase between >1.35 and ≤1.5)
Cc1cn2cc(-c3cc4ccc(N5CCN6CCCCC6C5)cc4oc3=O)cc2c(C)n1 (stereo not drawn) [Compound 683, 3-(1,3-dimethylpyrrolo[1,2-a]pyrazin-7-yl)-7-(octahydro-2H-pyrido[1,2-a]pyrazin-2-yl)-2H-chromen-2-one] | < 0.1 | 145 to 148 | < 300 | **** (fold increase between >1.5 and ≤1.65)
